# Reference: patent US20250154228A1, “HIGH-TRANSDERMAL-ABSORPTION PEPTIDE AND RECOMBINANT COLLAGEN CONSTRUCTED BY MEANS OF REPETITIONS OF PEPTIDE” (XI'AN GIANT BIOGENE TECHNOLOGY CO., LTD, priority 2022, published 2025)
# Ends that are not written are not given here.
# Test: 24 h transdermal penetration through mouse skin in vitro, single-chamber diffusion cell, BCA determination
# Type: in vitro ADME, Kunming mice
# Conditions: collagen peptides, 5 mg/ml in 0.9% NaCl, diffusion area 2.0 cm^2, 37.5° C., receiving solution after 24 h, BCA kit
# Description: 10 Kunming mice of 20 to 22 g with half male and half […] were used in the experiment. After the mice were killed, the hairs on the abdomen were removed. Then the skin on the hair-removed area was peeled off, stripped of fat and grain, and rinsed repeatedly with distilled water. After being washed, the mouse skins were rinsed with normal saline, then treated with 10% glycerol, and stored at −20° C. for use (used up within 7 days).
# Single-chamber diffusion cell: The effective diffusion area of the diffusion cell is 2.0 cm^2, the volume of the receiving cell is 14 ml, the length of the custom-made stirrer is 1.4 cm, and the receiving liquid is 0.9% NaCl solution.
# The stored mouse skin was taken out, thawed, washed with normal saline, and sandwiched between the receiving chamber and the supplying chamber, with the medicated side facing the supplying chamber and the skin side facing the receiving chamber. The temperature of the water bath system was adjusted to 37.5° C., and the stirring speed was adjusted to 100 rpm/min. 0.9% NaCl solution pre-warmed at 37° C. was added to the receiving chamber and the air bubbles were exhausted. In order to reduce the interference, the inner surface of the mouse skin was firstly contacted with the receiving solution without medication and all the receiving solution was replaced. Then the 18 collagen peptides synthesized were prepared into 5 mg/ml solutions using 0.9% NaCl respectively, which were injected into the supplying chamber and firmly adhere to the mouse skin respectively. After 24 h, part of the receiving solution was absorbed with a syringe as the sample solution to determine the transdermal amount of collagen peptide.
# The BCA kit method was used to determine the polypeptide content in the sample solution. […]
row,Sequence,24 h penetration amount [µg]
1,GAPGAPGSQGAPGLQGMPGER [compound 13],4048.04
2,GDLGAPGPSGARGERGFPGER [compound 11],2994.13
3,GEQGVPGDLGAPGPSGARGER [compound 9],3341.78
4,GERGAAGLPGPKGDRGDAGPK [compound 14],3745.15
5,GERGFPGERGVQGPPGPAGPR [compound 10],2992.77
6,GERGFPGLPGPSGEPGKQGPS [compound 16],3034.99
7,GERGGPGSRGFPGADGVAGPK [compound 6],3253.23
8,GERGPPGPMGPPGLAGPPGES [compound 18],3308.22
9,GERGPPGPQGARGLPGTAGLP [compound 2],3697.14
10,GERGRPGAPGPAGARGNDGAT [compound 4],3124.48
11,GERGVPGPPGAVGPAGKDGEA [compound 8],3113.64
12,GERGVQGPPGPAGPRGANGAP [compound 12],3103.23
13,GKRGARGEPGPTGLPGPPGER [compound 5],3023.05
14,GLPGPSGEPGKQGPSGASGER [compound 17],3498.56
15,GPPGKNGDDGEAGKPGRPGER [compound 1],3041.21
16,GPQGIAGQRGVVGLPGQRGER [compound 15],3111.47
17,GSPGENGAPGQMGPRGLPGER [compound 3],3213.66
18,GVMGFPGPKGAAGEPGKAGER [compound 7],3389.09
